Assay: relative permittivity at various frequencies (dimensionless); xn = mol fraction of the nth substance listed
Details: 101.3 kPa, Liquid, Frequency=1 MHz, Coaxial cylinder capacitor

CC#N [acetonitrile] + O
relative permittivity
Details	288.15 K	293.15 K	298.15 K	303.15 K	308.15 K	313.15 K	318.15 K	323.15 K	328.15 K	333.15 K
x1 = 0.0465	78.61	76.8	74.92	73.36	71.55	70.04	68.44	66.84	65.36	63.85
x1 = 0.0988	73.85	72.05	70.49	68.85	67.33	65.9	64.34	62.99	61.47	60.07
x1 = 0.158	68.68	67.21	65.57	64.22	62.78	61.26	59.91	58.6	57.29	55.97
x1 = 0.226	63.44	62	60.61	59.3	58.07	56.79	55.44	54.13	53.02	51.79
x1 = 0.305	58.11	56.92	55.69	54.58	53.43	52.28	51.18	49.99	48.92	47.94
x1 = 0.397	53.1	52.2	51.05	50.07	48.88	47.98	46.87	45.89	44.9	43.92
x1 = 0.506	48.72	47.77	46.83	45.89	44.99	44.12	43.18	42.28	41.38	40.52
x1 = 0.637	44.82	43.92	43.1	42.2	41.38	40.64	39.74	38.84	37.97	37.15
x1 = 0.798	41.05	40.39	39.41	38.67	37.85	37.11	36.29	35.39	34.82	34.08
x1 = 1	37.52	36.62	35.88	35.15	34.45	33.75	33.01	32.36	31.62	31.05

From the NIST ThermoML archive (doi:10.1021/je700055p)
